US20040092495A1, “Biguanide derivatives” (priority 2001, published 2004)

Assays:
N5STZ rats = experiment: Antidiabetic activity in N5STZ rats (oral, change in glycaemia); format: in vivo; conditions: four days of treatment, N5STZ diabetic rats, blood sample two hours after final administration
Description: Study of the Antidiabetic Activity in N5STZ Rats
The oral antidiabetic activity of the compounds of the formula (I) was determined on an experimental model of non-insulin-dependent diabetes induced in the rats using steptozotocin.
The model of non-insulin-dependent diabetes is obtained in the rats by means of an injection of steptozotocin on the 5th day after birth.
The diabetic rats used are eight weeks old. The animals are housed, from the day of birth to the day of the experiment, in an animal house at a regulated temperature of 21 to 22° C. and subjected to a fixed cycle of light (from 7 a.m. to 7 p.m.) and darkness (from 7 p.m. to 7 a.m.). Their food consisted of a maintenance diet, and water and food were given “ad libitum”, with the exception of fasting two hours before the tests, during which period the food is removed (post-absorptive state).
The rats are treated orally with the test product for four (D4) days. Two hours after the final administration of the product and 30 minutes after the animals have been anaesthetised with pentobarbital sodium (Nembutal®), a 300 μl blood sample is taken from the end of the tail.
By way of example, results obtained with compound 1 prepared above are collated compared with metformin in the following table.

[1] = test system: perfused leg of N5STZ rats; experiment: Sorption of glucose on the perfused leg of N5STZ rats in absence of insulin; format: in vivo; conditions: perfused back leg of N5STZ rats; for sorption of glucose: compound 10 μg/mL, 8 mmol/L glucose, n = 4

Structure (SMILES)	percentage change in the glycaemia on D4 relative to DO (N5STZ rats; 25 mg/kg) [%]	percentage change in the glycaemia on D4 relative to DO (N5STZ rats; 50 mg/kg) [%]	percentage change in the glycaemia on D4 relative to DO (N5STZ rats; 100 mg/kg) [%]	sorption of glucose [1]	induction of sorption of glucose by the muscle in absence of insulin (in words) [1]
CN(C)C(=N)NC(=N)N1CCCC1.Cl [Compound 1, Dimethylaminoiminomethylpyrrolidinecarboximidamide Hydrochloride]	−6	−23	−36	116.08 ± 20.63 (n = 4) μmol/g/l	
CN(C)C(=N)N=C(N)N [Metformin, metformin]	−13	−22	−21	32.09 ± 7.25 (n = 4) μmol/g/l	no effect
